Results reported in US11583575B2, “MHC-bound peptide arrays and methods of use thereof” (Roche Sequencing Solutions, Inc., priority 2016, dated 2023).

Columns and labels:
HLA-A2 = HLA-A2 (Homo sapiens, UniProt P04439, D140Y/D185E/D98H/E176V/E277Q/G131W/G231S/I119V/I121R/I166T/I218V/N151K/N90K/P208A/P217A/Q86G/Q94H/R138H/R169H); conditions: binding at pH 6.5 at 4° C. overnight, FIG. 10A/10B
Protocol: Binding was performed at pH 6.5 at 4° C. overnight.

ESK1 antibody = ESK1 antibody binding specificity to peptide-MHC assemblies for WT1 9mer peptides; conditions: FIG. 7
Excerpt: Because the array of peptides on the surface is spatially-ordered, the sequence of every peptide is immediately known. Each amino acid of the 9 amino acid peptide was substituted for each of the 20 possible amino acids to identify those positions within this peptide that are essential for forming a proper peptide-MHCI complex. […] The amino acids A, F, I, L, M, V, W and P are nonpolar amino acids. The amino acids G, S, Y, C, Q, T, N are polar amino acids. The amino acids R, K and H are basic amino acids. The amino acids D and E are acidic amino acids.

Sequence | peptide-MHC assembly signal, negatively charged HEX-asp-3HEX linker versus standard 5HEX linker (HLA-A2) | ESK1 antibody binding specificity (relative fluorescence intensity) (ESK1 antibody)
RLYDYFTRV | increase in the peptide-MHC assembly signal | 
RVPGVAPTL |  | cross-reactive target
